From PubChem BioAssay AID330 (DTP/NCI, 2004)
“And” between values parts separate entries of the source, which are not always exact repeats. Identical values can stand only once. Toxic doses and inconclusive results are not listed.

Test system: P388 leukemia ip, CD2F1 mice, survival T/C
Assay: NCI In Vivo Anticancer Drug Screen. Data for tumor model P388 Leukemia (intraperitoneal) in CD2F1 (CDF1) mice
Conditions: endpoint: median survival time, higher = longer survival
How it was run: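 Mice carrying the transplanted tumor received test compound or vehicle. Survival was recorded in each group, and the value is the treated-group measurement divided by that of the vehicle-treated control group.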

[1] = dose: 8.75 mg/kg/injection, schedule: Q01DX005 (ip), vehicle: Klucel (hydroxypropylcellulose) (HPC)
[2] = dose: 17.5 mg/kg/injection, schedule: Q01DX005 (ip), vehicle: Klucel (hydroxypropylcellulose) (HPC)
[3] = dose: 35.0 mg/kg/injection, schedule: Q01DX005 (ip), vehicle: Klucel (hydroxypropylcellulose) (HPC)
[4] = dose: 100.0 mg/kg/injection, schedule: Q01DX005 (ip), vehicle: Klucel (hydroxypropylcellulose) (HPC)
[5] = dose: 200.0 mg/kg/injection, schedule: Q01DX005 (ip), vehicle: Klucel (hydroxypropylcellulose) (HPC)
[6] = dose: 25.0 mg/kg/injection, schedule: Q01DX009 (ip), vehicle: other
[7] = dose: 50.0 mg/kg/injection, schedule: Q01DX009 (ip), vehicle: other
[8] = dose: 50.0 mg/kg/injection, schedule: Q01DX009 (ip), vehicle: saline with Tween-80
[9] = dose: 100.0 mg/kg/injection, schedule: Q01DX009 (ip), vehicle: other
[10] = dose: 100.0 mg/kg/injection, schedule: Q01DX009 (ip), vehicle: saline with Tween-80
[11] = dose: 200.0 mg/kg/injection, schedule: Q01DX009 (ip), vehicle: saline with Tween-80
[12] = dose: 400.0 mg/kg/injection, schedule: Q01DX009 (ip), vehicle: saline with Tween-80
[13] = dose: 50.0 mg/kg/injection, schedule: Q01DX009 (ip), vehicle: Klucel (hydroxypropylcellulose) (HPC)
[14] = dose: 100.0 mg/kg/injection, schedule: Q01DX009 (ip), vehicle: Klucel (hydroxypropylcellulose) (HPC)
[15] = dose: 200.0 mg/kg/injection, schedule: Q01DX009 (ip), vehicle: Klucel (hydroxypropylcellulose) (HPC)
[16] = dose: 50.0 mg/kg/injection, schedule: Q01DX005 (ip), vehicle: Klucel (hydroxypropylcellulose) (HPC)
[17] = dose: 60.0 mg/kg/injection, schedule: Q01DX005 (ip), vehicle: saline
[18] = dose: 120.0 mg/kg/injection, schedule: Q01DX005 (ip), vehicle: saline
[19] = dose: 240.0 mg/kg/injection, schedule: Q01DX005 (ip), vehicle: saline
[20] = dose: 60.0 mg/kg/injection, schedule: Q01DX005 (ip), vehicle: saline with Tween-80
[21] = dose: 120.0 mg/kg/injection, schedule: Q01DX005 (ip), vehicle: saline with Tween-80
[22] = dose: 240.0 mg/kg/injection, schedule: Q01DX005 (ip), vehicle: saline with Tween-80

Structure (SMILES): O=C(/C=C/c1ccccc1)OCC12OC1C(O)C1C=COC(OC3OC(CO)C(O)C(O)C3O)C12 (stereo not given)
- T/C (dose: 4.38 mg/kg/injection, schedule: Q01DX005 (ip), vehicle: Klucel (hydroxypropylcellulose) (HPC)): 96 % of control
- T/C [1]: 94 % of control
- T/C [2]: 97 % of control
- T/C [3]: 97 % of control
- T/C (dose: 70.0 mg/kg/injection, schedule: Q01DX005 (ip), vehicle: Klucel (hydroxypropylcellulose) (HPC)): 97 % of control
- T/C [4]: 95 % of control
- T/C [5]: 103 % of control

Structure (SMILES): c1ccc2[nH]c(N=Nc3cccc4ccccc34)cc2c1
- T/C [6]: 93 % of control and 95 % of control
- T/C [7]: 100 % of control
- T/C [8]: 99 % of control
- T/C [9]: 100 % of control and 94 % of control
- T/C [10]: 108 % of control and 115 % of control
- T/C (dose: 200.0 mg/kg/injection, schedule: Q01DX009 (ip), vehicle: other): 98 % of control and 100 % of control
- T/C [11]: 115 % of control
- T/C [12]: 98 % of control

Structure (SMILES): Nc1ccccc1C(=O)NCCc1c[nH]c2ccccc12
- T/C (dose: 50.0 mg/kg/injection, schedule: Q01DX005 (ip), vehicle: saline with Tween-80): 99 % of control
- T/C (dose: 100.0 mg/kg/injection, schedule: Q01DX005 (ip), vehicle: saline with Tween-80): 107 % of control
- T/C (dose: 200.0 mg/kg/injection, schedule: Q01DX005 (ip), vehicle: saline with Tween-80): 107 % of control

Structure (SMILES): CCCCCCCCC1SC1CCCCCCCC(=O)OCCOCCOCC (stereo not given)
- T/C [10]: 104 % of control
- T/C [11]: 104 % of control
- T/C [12]: 100 % of control

Structure (SMILES): CC1CCCCC1NC(=O)NCCOC(=O)OCCNC(=O)NC1CCCCC1C (stereo not given)
- T/C (dose: 100.0 mg/kg/injection, schedule: Q04DX003 (ip), vehicle: saline with Tween-80): 90 % of control
- T/C (dose: 200.0 mg/kg/injection, schedule: Q04DX003 (ip), vehicle: saline with Tween-80): 86 % of control
- T/C (dose: 400.0 mg/kg/injection, schedule: Q04DX003 (ip), vehicle: saline with Tween-80): 86 % of control

Structure (SMILES): CCCCOC(=O)NCNC(=O)OCCCC
- T/C [13]: 99 % of control
- T/C [14]: 100 % of control
- T/C [15]: 94 % of control

Structure (SMILES): CC(C)(C)C1CC=CC(=O)CC1 (stereo not given)
- T/C [14]: 111 % of control
- T/C [15]: 119 % of control

Structure (SMILES): CC(C)(O)C1COC2=C1C(=O)c1ccccc1C2=O (stereo not given)
- T/C [7]: 94 % of control
- T/C [9]: 107 % of control

Structure (SMILES): Cn1c(C=O)cnc1[N+](=O)[O-]
- T/C (dose: 12.5 mg/kg/injection, schedule: Q01DX009 (ip), vehicle: Klucel (hydroxypropylcellulose) (HPC)): 108 % of control
- T/C (dose: 25.0 mg/kg/injection, schedule: Q01DX009 (ip), vehicle: Klucel (hydroxypropylcellulose) (HPC)): 111 % of control
- T/C [13]: 111 % of control and 115 % of control

Structure (SMILES): CC(=O)Nc1nc(Cl)c2ncn(C3CC(OC(=O)c4ccc(C)cc4)C(COC(=O)c4ccc(C)cc4)O3)c2n1 (stereo not given)
- T/C (dose: 12.5 mg/kg/injection, schedule: Q01DX005 (ip), vehicle: Klucel (hydroxypropylcellulose) (HPC)): 97 % of control
- T/C (dose: 25.0 mg/kg/injection, schedule: Q01DX005 (ip), vehicle: Klucel (hydroxypropylcellulose) (HPC)): 90 % of control
- T/C [16]: 97 % of control and 100 % of control
- T/C [4]: 95 % of control and 98 % of control
- T/C [5]: 97 % of control and 103 % of control

Structure (SMILES): O=C1OCC/C1=C1/NCCNC1=O
- T/C [8]: 91 % of control
- T/C [10]: 116 % of control
- T/C [11]: 109 % of control

Structure (SMILES): O=c1cccccc1O.O=c1cccccc1O.O=c1cccccc1O.[Ru]
- T/C [16]: 96 % of control
- T/C [4]: 100 % of control
- T/C [5]: 116 % of control

Structure (SMILES): N#C/C=C1/C=CC(O)CC1OC1OC(CO)C(O)C(O)C1O (stereo not given)
- T/C (dose: 3.0 mg/kg/injection, schedule: Q01DX009 (ip), vehicle: saline): 102 % of control
- T/C (dose: 6.0 mg/kg/injection, schedule: Q01DX009 (ip), vehicle: saline): 101 % of control
- T/C (dose: 12.0 mg/kg/injection, schedule: Q01DX009 (ip), vehicle: saline): 102 % of control
- T/C (dose: 24.0 mg/kg/injection, schedule: Q01DX009 (ip), vehicle: saline): 104 % of control

Structure (SMILES): O=C1CN2C=CC=CC2=NN1
- T/C [17]: 100 % of control
- T/C [18]: 99 % of control
- T/C [19]: 101 % of control

Structure (SMILES): Nc1nc(N)nc(Nc2ccc(-c3cc4ccc(-c5ncc[nH]5)cc4[nH]3)cc2)n1
- T/C (dose: 30.0 mg/kg/injection, schedule: Q01DX005 (ip), vehicle: Klucel (hydroxypropylcellulose) (HPC)): 153 % of control
- T/C (dose: 120.0 mg/kg/injection, schedule: Q01DX005 (ip), vehicle: Klucel (hydroxypropylcellulose) (HPC)): 164 % of control and 171 % of control
- T/C (dose: 240.0 mg/kg/injection, schedule: Q01DX005 (ip), vehicle: Klucel (hydroxypropylcellulose) (HPC)): 183 % of control and 188 % of control

Structure (SMILES): CCOC(=O)CCCCCO[Si](c1ccccc1)(c1ccccc1)C(C)(C)C
- T/C [20]: 110 % of control
- T/C [21]: 99 % of control
- T/C [22]: 88 % of control

Structure (SMILES): O[Si](c1ccccc1)(c1ccccc1)c1ccccc1.O[Si](c1ccccc1)(c1ccccc1)c1ccccc1.O[Si](c1ccccc1)(c1ccccc1)c1ccccc1.[O]=[V]
- T/C [16]: 92 % of control
- T/C [4]: 90 % of control
- T/C [5]: 92 % of control

Structure (SMILES): O=C(O)CCCOC(C[N+](=O)[O-])C(Cl)(Cl)Cl (stereo not given)
- T/C [8]: 95 % of control
- T/C [10]: 100 % of control
- T/C [11]: 96 % of control

Structure (SMILES): Cc1cc(C)n(-c2ccc(N(CCO)CCO)nn2)n1
- T/C (dose: 75.0 mg/kg/injection, schedule: Q01DX005 (ip), vehicle: other): 93 % of control
- T/C (dose: 150.0 mg/kg/injection, schedule: Q01DX005 (ip), vehicle: other): 88 % of control
- T/C (dose: 250.0 mg/kg/injection, schedule: Q01DX005 (oral), vehicle: water): 103 % of control
- T/C (dose: 300.0 mg/kg/injection, schedule: Q01DX005 (ip), vehicle: other): 93 % of control
- T/C (dose: 500.0 mg/kg/injection, schedule: Q01DX005 (oral), vehicle: water): 116 % of control
- T/C (dose: 1000.0 mg/kg/injection, schedule: Q01DX005 (oral), vehicle: water): 99 % of control

Structure (SMILES): COC(=O)C1Cc2cocc2CC(C(=O)OC)N1C(=O)OC(C)(C)C (stereo not given)
- T/C [1]: 99 % of control
- T/C [2]: 101 % of control
- T/C [3]: 99 % of control

Structure (SMILES): O=C1c2ccccc2C(=O)c2c(NCCN3CCCCC3)ccc(NCCN3CCCCC3)c21
- T/C (dose: 4.0 mg/kg/injection, schedule: Q01DX009 (ip), vehicle: acid diluted with saline): 102 % of control
- T/C (dose: 8.0 mg/kg/injection, schedule: Q01DX009 (ip), vehicle: acid diluted with saline): 100 % of control
- T/C (dose: 12.5 mg/kg/injection, schedule: Q01DX009 (ip), vehicle: other): 98 % of control
- T/C (dose: 16.0 mg/kg/injection, schedule: Q01DX009 (ip), vehicle: acid diluted with saline): 103 % of control
- T/C [6]: 104 % of control
- T/C (dose: 32.0 mg/kg/injection, schedule: Q01DX009 (ip), vehicle: acid diluted with saline): 101 % of control
- T/C [7]: 104 % of control
- T/C (dose: 64.0 mg/kg/injection, schedule: Q01DX009 (ip), vehicle: acid diluted with saline): 104 % of control
- T/C [9]: 121 % of control

Structure (SMILES): CCCCOP(=O)(O)OCCCC
- T/C (dose: 100.0 mg/kg/injection, schedule: Q01DX001 (ip), vehicle: Klucel (hydroxypropylcellulose) (HPC)): 111 % of control
- T/C (dose: 200.0 mg/kg/injection, schedule: Q01DX001 (ip), vehicle: Klucel (hydroxypropylcellulose) (HPC)): 105 % of control

Structure (SMILES): CCOC(=O)/C=C/C(F)(F)F
- T/C (dose: 30.0 mg/kg/injection, schedule: Q01DX005 (ip), vehicle: saline with Tween-80): 100 % of control
- T/C (dose: 30.0 mg/kg/injection, schedule: Q01DX005 (ip), vehicle: saline): 94 % of control
- T/C [20]: 100 % of control
- T/C [17]: 99 % of control and 101 % of control
- T/C [21]: 100 % of control
- T/C [18]: 100 % of control and 101 % of control
- T/C [22]: 107 % of control
- T/C [19]: 100 % of control and 120 % of control

Structure (SMILES): CCOC(=O)CS(=O)(=O)CCCCCCCCCCS(=O)(=O)CC(=O)OCC
- T/C (dose: 50.0 mg/kg/injection, schedule: Q01DX009 (ip), vehicle: saline): 102 % of control
- T/C (dose: 100.0 mg/kg/injection, schedule: Q01DX009 (ip), vehicle: saline): 99 % of control
- T/C (dose: 200.0 mg/kg/injection, schedule: Q01DX009 (ip), vehicle: saline): 89 % of control
